Read-outs that look alike come from different tables or passages of the source.
How the values were obtained:
B. turcica KLEX1 = experiment: MIC of hygromycin A resistant mutant; assay type: cell-based
B. burgdorferi = experiment: Efficacy of hygromycin A in Peromyscus mice; assay type: in vivo; settings: Peromyscus leucopus, subcutaneous, twice a day, 5 days
Text: Mice were sacrificed on Day 11 and the heart, ankle, and ear were taken for culture. Cultures were monitored by darkfield microscopy for 4 weeks or until positive.

FaDu = settings: alamar blue, 72 hours
[1] = tested on: B. burgdorferi hygromycin A resistant mutant KLEx2; experiment: RNAseq of hygromycin A treated vs untreated cells; assay type: cell-based; settings: for log2 Fold Change: 4 ug/ml hygromycin A vs untreated
[2] = tested on: E. coli ΔtolC-Pore (no efflux, hyperporinated); experiment: MIC of E. coli mutant strains
[3] = tested on: Brachyspira (formerly Treponema) hyodysenteriae; settings: report of a group from Japan; cited from earlier work
[4] = tested on: FaDu, HepG2 and HEK293-RFP cells; settings: a number of human cell lines
[5] = tested on: E. coli WT-Pore (hyperporinated); experiment: MIC of E. coli mutant strains
[6] = tested on: Borrelia burgdorferi (B31, N40, 297); assay type: cell-based
[7] = tested on: GFP-inducible B. burgdorferi strain pCRW53; experiment: Measurement of protein synthesis inhibition (GFP, FACS); assay type: cell-based

## Hygromycin A
B. turcica KLEX1; B. turcica KLEX1, stable hygromycin A resistance
  MIC: 8 µg/mL
B. turcica KLEX1; B. turcica KLEX1 vs parent
  MIC increase as compared to wild type parent strain: 16 fold
B. burgdorferi; total daily dose 100 mg/kg/day
  Culture positive (%): 100%
B. burgdorferi; total daily dose 200 mg/kg/day
  Culture positive (%): 0%
FaDu
  IC50: >512 µg/mL
[1]; gene 16S
  log2 Fold Change: −1.80
[1]; gene BBC10
  log2 Fold Change: −8.07
[1]; gene BBC11
  log2 Fold Change: −7.92
[1]; gene BB_0183
  log2 Fold Change: −1.46
[1]; gene BB_0206
  log2 Fold Change: 1.07
[1]; gene BB_0212
  log2 Fold Change: −1.15
[1]; gene BB_0731
  log2 Fold Change: −1.01
[1]; gene BB_0758
  log2 Fold Change: 1.32
[1]; gene BB_0839
  log2 Fold Change: −1.15
[1]; gene BB_0844
  log2 Fold Change: −1.41
[1]; gene BB_A07
  log2 Fold Change: −1.23
[1]; gene BB_A34
  log2 Fold Change: 1.06
[1]; gene BB_B13
  log2 Fold Change: 1.12
[1]; gene BB_H41
  log2 Fold Change: −2.37
[1]; gene BB_I18
  log2 Fold Change: 1.16
[1]; gene BB_J11
  log2 Fold Change: 1.02
[1]; gene BB_J17
  log2 Fold Change: 1.43
[1]; gene BB_J27
  log2 Fold Change: 1.18
[1]; gene BB_J31
  log2 Fold Change: 1.22
[1]; gene BB_J45
  log2 Fold Change: 1.22
[1]; gene BB_K42
  log2 Fold Change: −1.05
[1]; gene BB_L03
  log2 Fold Change: 1.06
[1]; gene BB_N03
  log2 Fold Change: 1.15
[1]; gene BB_N04
  log2 Fold Change: 1.06
[1]; gene BB_O18
  log2 Fold Change: −1.04
[1]; gene BB_P03
  log2 Fold Change: 1.06
[1]; gene BB_U05
  log2 Fold Change: −1.14
[1]; gene bmpD
  log2 Fold Change: −1.67
[1]; gene glpK
  log2 Fold Change: −1.62
[1]; gene tRNA-Cys-1
  log2 Fold Change: −1.17
[1]; transcriptome of hygromycin A treated KLEX2 cells vs untreated
  Decrease in the expression of bmpD: 2.78 fold
[2]
  MIC: 16 µg/mL
[3]
  Treatment of pig dysentery: showed efficacy
[4]
  EC50 (cytotoxicity): > 512
[5]
  MIC: 512 µg/mL
[6]; B. burgdorferi
  MIC: 0.25 µg/mL
[6]; Borrelia burgdorferi (B31, N40, 297)
  MIC: 0.25 µg
[6]; wild type B. burgdorferi (FIG. 7B)
  MIC: 0.25 µg/mL
[7]
  GFP level as compared to control (protein synthesis): dramatically lower level of GFP

Reference: patent US20240082282A1 (priority 2020, published 2024)
